Data: PubChem BioAssay AID1963853 (Molecular Pharmacology Branch, DTP, NCI, 2024)

System: 266295-075-R-J1-PDC spheroid viability
Assay: Anticancer human tumor 266295-075-R-J1-PDC patient-derived head and neck squamous carcinoma cell line growth inhibition [POLQ]
Settings: spheroids with HUVEC and MSC; for IC50: curve of first compound; for viability, T/C: stronger effect = lower value
Method in brief: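 Patient-derived tumour cells were co-cultured with HUVEC and mesenchymal stem cells as multicellular spheroids at 37 °C. They were treated with POLQ inhibitors (novobiocin, ART-558, RP6685) alone or combined with other agents. Top concentrations were at or near clinical Cmax (otherwise 10 microM; SN-38 at 1 microM), decreasing in half-log steps.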
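Further: spheroids exposed to compounds for seven days before readout.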

In the case of C#Cc1c(F)ccc2cc(O)cc(-c3ncc4c(N5CC6CCC(C5)N6)nc(OCC56CCCN5CC(F)C6)nc4c3F)c12 (configuration not stated) + Nc1ccc(C#CCN(C(=O)Cc2ncc(C(F)(F)F)cc2C(F)(F)F)c2ccc(F)cc2)nn1, the IC50 (second compound 0.0316 µM) is reported as > 10 µM, the IC50 (second compound 0.1 µM) is reported as 7.4 µM and the IC50 (second compound 0.316 µM) is reported as 8.3 µM. The IC50 (second compound 1 µM) was > 10 µM, the IC50 (second compound 3.16 µM) was > 10 µM and the IC50 (second compound 10 µM) was > 10 µM. It also gave a viability, T/C (second compound 0.0316 µM, first compound 0.0316 µM) of 86.8%, a viability, T/C (second compound 0.0316 µM, first compound 0.1 µM) of 89% and a viability, T/C (second compound 0.0316 µM, first compound 0.316 µM) of 82.9%. The viability, T/C (second compound 0.0316 µM, first compound 1 µM) was 71.6%, the viability, T/C (second compound 0.0316 µM, first compound 3.16 µM) was 60.8% and the viability, T/C (second compound 0.0316 µM, first compound 10 µM) was 50%. It also gave a viability, T/C (second compound 0.1 µM, first compound 0.0316 µM) of 90.2%, a viability, T/C (second compound 0.1 µM, first compound 0.1 µM) of 103% and a viability, T/C (second compound 0.1 µM, first compound 0.316 µM) of 75.2%. It also gave a viability, T/C (second compound 0.1 µM, first compound 1 µM) of 81%, a viability, T/C (second compound 0.1 µM, first compound 3.16 µM) of 67% and a viability, T/C (second compound 0.1 µM, first compound 10 µM) of 43.7%. For the same compound, the viability, T/C (second compound 0.316 µM, first compound 0.0316 µM) was 89.2%, the viability, T/C (second compound 0.316 µM, first compound 0.1 µM) was 71.7% and the viability, T/C (second compound 0.316 µM, first compound 0.316 µM) was 63%. It also gave a viability, T/C (second compound 0.316 µM, first compound 1 µM) of 84.1%, a viability, T/C (second compound 0.316 µM, first compound 3.16 µM) of 60.7% and a viability, T/C (second compound 0.316 µM, first compound 10 µM) of 47.3%. It also gave a viability, T/C (second compound 1 µM, first compound 0.0316 µM) of 114%, a viability, T/C (second compound 1 µM, first compound 0.1 µM) of 84% and a viability, T/C (second compound 1 µM, first compound 0.316 µM) of 70.7%. For the same compound, the viability, T/C (second compound 1 µM, first compound 1 µM) was 68.3%, the viability, T/C (second compound 1 µM, first compound 3.16 µM) was 56.9% and the viability, T/C (second compound 1 µM, first compound 10 µM) was 54.7%. For the same compound, the viability, T/C (second compound 3.16 µM, first compound 0.0316 µM) was 80.8%, the viability, T/C (second compound 3.16 µM, first compound 0.1 µM) was 90.6% and the viability, T/C (second compound 3.16 µM, first compound 0.316 µM) was 74.7%. For the same compound, the viability, T/C (second compound 3.16 µM, first compound 1 µM) was 68.7%, the viability, T/C (second compound 3.16 µM, first compound 3.16 µM) was 71.6% and the viability, T/C (second compound 3.16 µM, first compound 10 µM) was 64.1%. The viability, T/C (second compound 10 µM, first compound 0.0316 µM) was 91.8%, the viability, T/C (second compound 10 µM, first compound 0.1 µM) was 73.9% and the viability, T/C (second compound 10 µM, first compound 0.316 µM) was 82.5%. The viability, T/C (second compound 10 µM, first compound 1 µM) was 63.8%, the viability, T/C (second compound 10 µM, first compound 3.16 µM) was 64.1% and the viability, T/C (second compound 10 µM, first compound 10 µM) was 52.4%.
